Test results taken from patent US11774460B2, “Diagnostic or predictor of relapsing remitting multiple sclerosis” (Dignity Health, priority 2016, dated 2023).

System: Factor VIII activity
Assay: Factor VIII activity in blood of multiple sclerosis patients under treatment
Type: in vivo, human
Details: MS patient with elevated Factor VIII activity during exacerbation
Description: In various embodiments, disclosed herein is a method of detecting or predicting a relapse of multiple sclerosis in an individual afflicted with a form of multiple sclerosis, comprising: (a) providing a blood sample of the individual; (b) testing the blood sample to determine a protein activity or protein level, wherein the protein is Factor VIII, von Willebrand factor, or Protein C; and (c) detecting a relapse of multiple sclerosis in the individual if the protein activity or protein level is elevated compared to the protein activity or protein level in an individual not afflicted with the form of multiple sclerosis or the patient's own lowest baseline value as a form of a control. In some of these embodiments, the form of multiple sclerosis is relapsing-remitting multiple sclerosis with or without secondary progression. In some embodiments, the multiple sclerosis in the individual is in remission. In some embodiments, the blood sample test to determine the protein activity or protein level is performed simultaneously with other blood tests, such as, partial thromboplastin time (PTT) test, International Normalized Ratio (INR) test, and erythrocyte sedimentation rate (ESR) test. In some of these embodiments, the blood sample tests are performed at least once per month during the treatment period and/or monitoring period of multiple sclerosis. […]

Substance: TYSABRI: disease-modifying therapy for multiple sclerosis named only by trade name
- Factor VIII activity after treatment: returned to normal
